This note sets out measurements from patent publication US20070197658A1, “Polyamines and their use as antibacterial and sensitizing agents” (priority 2006, published 2007).

Each structure is given as a SMILES string. Where “and” joins values, the source holds several entries; their conditions need not be identical. Equal values may be shown once.

In series [1] the test system is E. coli ATCC 9637. The series is described as follows: microbe, parasite or virus in culture. The procedure:
(§1) An equal volume of a suspension of either E. coli ATCC 9637 (FIG. 6A) or S. aureus ATCC 13709 (FIG. 6B) in 2× Mueller-Hinton broth was added using an automated liquid dispensing system to a 384 well plate, and bacterial growth was measured by absorptimetry as described in Materials and Methods.
(§2) In this example, E. coli strain 9637 and S. aureus strain 13709 were procured from ATCC (Manassas, Va.). For IM permeability assays, E. coli ML-35 (ATCC 43827), a lactose permease-deficient strain with constitutive cytoplasmic β-galactosidase activity was used (26). Calcium chloride transformation of E. coli ML-35 was performed using the plasmid vector pBR322 (6), encoding tetracycline and ampicillin resistance genes (Promega, Madison, Wis.). The transformed strain, E. coli ML-35p, selected by ampicillin resistance, was utilized for the OM permeabilization assay. E. coli ML-35p was maintained on trypticase soy agar plates with 50 μg/ml of ampicillin.
(§3) Minimum inhibitory concentrations of the acylpolyamines were determined by broth microdilution method (1) as per NCCLS guidelines. Mid-log phase Mueller-Hinton broth (MHB; non-cation supplemented) cultures of organisms (40 μl; OD600nm adjusted to 0.5 AU, and diluted ten-fold) were added to equal volumes of two-fold serially diluted acylpolyamines in a 384-well microtiter plate with the help of a Biotek Precision 2000 automated microplate pipetting system. The MICs of rifampicin, polymyxin B (PMB), polymyxin B nonapeptide (PMBN), naphthylacetyl spermine trihydrochloride and methoctramine tetrahydrochloride (Sigma, St. Louis, Mo.) were included as reference compounds for comparison of activity. The microtiter plates were sealed and incubated overnight at 37° C. The plates were read at an absorbance of 600 nm. The lowest concentration of an agent inhibiting growth of the organisms was recorded as the MIC.

A further series concerns S. aureus ATCC 13709. Briefly: microbe, parasite or virus in culture. The procedure: as §1, §2, §3
Series [2] relates to E. coli ATCC 9637. Briefly: Effect of acylpolyamines on MIC of rifampicin (sensitization). In kind it is cell-based, Escherichia coli. More on the design: key to Sensitization to Rifampin: fold sensitization = MIC rifampicin alone / MIC with 10 μM compound. Conditions: for Sensitization to Rifampin: E. coli strain 9637 preincubated with 10 μM of compound, MIC of rifampicin. The procedure: E. coli ATCC 9637 was seeded in MH broth in chequerboard format in a 384-well plate containing a constant concentration of compound and varying doses of rifampicin. Bacterial growth was monitored by turbidimetry at 600 nm. PMBN and melittin were used as positive controls. Wells containing no test-compound served as negative control. […] Fold sensitization was calculated as MICRifampicin alone/MICRifampicin+10μM Compound.
Perturbation of the outer membrane permeability barrier greatly sensitizes Gram negative organisms to otherwise impermeable hydrophobic solutes, rifampicin being a classic example To determine the effect of acylpolyamines on the MIC of hydrophobic antibiotic, rifampicin, E. coli strain 9637 was used. Overnight cultures of E. coli grown in MHB preincubated with 10 μM of acylpolyamines were added to serially diluted rifampicin in a 384-well microtiter plate. After incubation at 37° C. overnight, the MIC was determined. Controls included PMBN and melittin (positive) and rifampicin alone (negative). All experiments were run in triplicate.

A further series relates to CF-1 mice. Conditions: preliminary. The procedure:
Detailed biophysical studies on the characterization of the binding site on albumin, stoichiometry, and dependence of binding affinity on mono-versus bis-acylation and acyl chain length will be published elsewhere.
Clinical signs of acute toxicity were monitored for 48 h following a single injection. In subacute studies, 100 μg of 4e was injected daily in the subcutaneous tissue of the flank region, the sites being alternated every day, for a duration of 15 days. The animals were monitored daily for signs of local irritation, weight loss, and food consumption.

The conditions of series [3]: 500 μM in 50 mM Tris buffer, pH 7.4, 5% DMSO, 25° C. The procedure: Charged, amphipathic molecules are surface-active, and can be cytolytic to mammalian cells. […] Samples were at 500 μM concentration in 50 mM Tris buffer, pH 7.4 containing 5% DMSO. The instrument was calibrated with water at 25° C. (72 mN/m) and surface tension values were recorded over a range of bubble surface ages from 100 to 1500 ms at 25° C.

Series [4] has as its system LPS-induced nitric oxide production in murine macrophages. The series is described as follows: NO inhibition, compound solubilized in DMSO or in HSA. In kind it is cell-based, mouse. The conditions noted are these: DMSO vs HSA solubilization (FIG. 7C).
The target of the next series is human serum albumin (Homo sapiens, UniProt P02768). The series is described as follows: biochemical. The conditions noted are these: KD for HSA, isothermal titration calorimetry; single-site model.
The test system of the next series is human whole blood. The series is described as follows: Hemolysis in fresh whole human blood (released hemoglobin, 570 nm). In kind it is cell-based. Conditions: fresh undiluted EDTA human blood, 37° C., 30 min. The procedure:
Melittin was used as a positive control.
1:233-245 (2004). Erythrocyte damage was measured using two different techniques. […] Biophys. Acta 1123:269-274 (1992).

Series [5] relates to E. coli ML-35p (OM) / E. coli ML-35 (IM). In kind it is cell-based, Escherichia coli. Conditions: nitrocefin and ONPG hydrolysis.
Experimental: OM permeabilizing activity was determined using E. coli ML-35p (parent i^− z^+ y^− ATCC 43827 transformed with pBR322 vector encoding periplasmic β-lactamase); the leakage of periplasmic β-lactamase activity was quantified using nitrocefin as a chromogenic substrate. IM permeabilizing activity was determined using E. coli ML-35 using o-nitrophenyl-β-D-galactopyranoside as the substrate to determine the β-galactosidase activity. In all experiments, PMB, PMBN, and melittin were used as reference compounds.
Nitrocefin (Calbiochem, San Diego, Calif.) was used for the determination of periplasmic β-lactamase activity since PADAC has been reported to be frequently insensitive to β-lactamase activity in clinically relevant strains of Staphylococcus. […] Harvested mid-log phase cultures of E. coli ML-35p (OD600nm adjusted to 0.5 AU) grown in trypticase soy broth were washed thrice with normal saline (0.9%). Nitrocefin was added to a final concentration of 50 μg/ml to the washed bacterial suspension, which was then added to the serially diluted compounds in a 384-well microtiter plate as described earlier. […] After various times of incubation at 37° C., β-lactamase activity was measured spectrophotometrically at 486 nm using an automated Spectramax M2 instrument (Molecular Devices, Sunnyvale, Calif.).
The IM permeability was measured using o-nitrophenyl-β-D-galactopyranoside (“ONPG”; Sigma, St. Louis, Mo.) as the substrate to determine the β-galactosidase activity. […] Washed cultures of E coli ML-35 mixed with 1.5 mM of ONPG in normal saline (0.9%) were added to serially diluted compounds in a 384-well microtiter plate. PMBN and melittin were used as the controls. The production of o-nitrophenol was quantified absorptimetrically at 420 nm after an incubation period of 1 hour at 37° C.
OM and IM permeability were determined respectively from dose-response curves of nitrocefin and ONPG hydrolysis rates as described in Lehrer et al., Concurrent assessment of inner and outer membrane permeabilization and bacteriolysis in E. coli by multiple-wavelength spectrophotometry, J. Immunol.
[6] abbreviates: E. coli ATCC 9637, Mueller-Hinton broth, overnight 37° C.
Where [7] appears, read: S. aureus ATCC 13709, Mueller-Hinton broth, overnight 37° C.

Sequence of human serum albumin (P02768 25-609): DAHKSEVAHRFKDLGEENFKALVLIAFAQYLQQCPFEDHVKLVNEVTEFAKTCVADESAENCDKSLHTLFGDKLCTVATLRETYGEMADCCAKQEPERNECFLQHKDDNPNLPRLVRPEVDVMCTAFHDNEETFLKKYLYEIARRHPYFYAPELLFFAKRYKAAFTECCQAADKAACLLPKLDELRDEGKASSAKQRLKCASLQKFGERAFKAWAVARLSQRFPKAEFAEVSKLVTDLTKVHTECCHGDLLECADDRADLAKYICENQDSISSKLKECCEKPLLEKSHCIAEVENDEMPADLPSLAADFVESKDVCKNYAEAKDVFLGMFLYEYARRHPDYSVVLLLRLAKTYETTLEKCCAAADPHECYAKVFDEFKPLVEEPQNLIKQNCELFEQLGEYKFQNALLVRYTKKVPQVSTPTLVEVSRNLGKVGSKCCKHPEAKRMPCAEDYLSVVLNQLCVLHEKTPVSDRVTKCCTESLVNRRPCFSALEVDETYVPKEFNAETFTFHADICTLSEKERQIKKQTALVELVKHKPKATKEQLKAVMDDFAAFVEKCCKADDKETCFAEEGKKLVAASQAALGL

Take `CCCCCCCCC(=O)NCCCNCCCNCCCCNCCCNCCCNC(=O)CCCCCCCC.O=C(O)C(F)(F)F.O=C(O)C(F)(F)F.O=C(O)C(F)(F)F.O=C(O)C(F)(F)F` [Compound 8a]: the MIC in the series on E. coli ATCC 9637 [1] (setting [6]) is 31.25 μM and 32.9 μg/ml; against S. aureus ATCC 13709 (setting [7]), 15.6 μM and 16.4 μg/ml. For the same compound, in the series with E. coli ATCC 9637 [2] (10 μM compound, E. coli ATCC 9637), the “sensitization activity (MIC rifampicin alone / MIC rifampicin + 10 μM compound)” value was 4096 fold. Moreover, the “Sensitization to Rifampin” value with E. coli ATCC 9637 [2] amounted to 0.00381. Also, the subacute toxicity entry with CF-1 mice (100 μg/mouse, subcutaneously, for 15 days) is “not revealed any detectable toxicity”. Further, the acute toxicity result with CF-1 mice (up to 1 mg/mouse, one dose subcutaneously) was “not revealed any detectable toxicity”. Besides, the surface activity result in [3] is “considerably surface active”.

With `CCCCCCCCCCCCCCC(=O)NCCCNCCCNCCCCNCCCN` [Compound 4e], the MIC in the series on E. coli ATCC 9637 [1] (Escherichia coli, ATCC9637) was 31.2 µM and 29.3 µg/mL; in the series on S. aureus ATCC 13709 (Staphylococcus aureus, ATCC13709), 15.6 µM and 14.6 µg/mL. Further, in the series with E. coli ATCC 9637 [2], the “Sensitization to Rifampin” value stood at 7.81. The “potency of NO inhibition solubilized in DMSO or in HSA” value in [4] was “identical potency”. Moreover, the Kd on human serum albumin was 1980 nM and ~2000 nM.

For `CC[C@H](C)[C@H](NC(=O)CN)C(=O)NCC(=O)N[C@@H](C)C(=O)N[C@H](C(=O)N[C@@H](CC(C)C)C(=O)N[C@@H](CCCCN)C(=O)N[C@H](C(=O)N[C@@H](CC(C)C)C(=O)N[C@H](C(=O)N[C@H](C(=O)NCC(=O)N[C@@H](CC(C)C)C(=O)N1CCC[C@H]1C(=O)N[C@@H](C)C(=O)N[C@@H](CC(C)C)C(=O)N[C@H](C(=O)N[C@@H](CO)C(=O)N[C@@H](Cc1c[nH]c2ccccc12)C(=O)N[C@H](C(=O)N[C@@H](CCCCN)C(=O)N[C@@H](CCCNC(=N)N)C(=O)N[C@@H](CCCCN)C(=O)N[C@@H](CCCNC(=N)N)C(=O)N[C@@H](CCC(N)=O)C(=O)N[C@@H](CCC(N)=O)C(N)=O)[C@@H](C)CC)[C@@H](C)CC)[C@@H](C)O)[C@@H](C)O)C(C)C)C(C)C` [Melittin, melittin, reference compound], the MIC against E. coli ATCC 9637 [1] (setting [6]) was 175 μM and 498.1 μg/ml; in the series with S. aureus ATCC 13709 (setting [7]), 5.5 μM and 15.6 μg/ml. In addition, the “hemolysis in human whole blood” value with human whole blood is given as “caused hemolysis at low micromolar concentrations”. For the same compound, in series [5], the “membrane-permeabilizing activity (OM and IM)” value is reported as “potently membrane-permeabilizing”.
